This is an account of results in patent US11230593B2, “Compositions and methods for treating and preventing influenza” (VISTERRA, INC., priority 2019, dated 2022).

Type in all cases: cell-based, Influenza A
For assay [1], the system named is Victoria/3/75-Os-R (H3N2). Nature of the assay: microbe, parasite or virus in culture.
The next assay has as its system WSN/33 H274Y (H1N1).
Assay [2] has as its system Mississippi/3/2001 H275Y (H1N1).
The subject of assay [3] is Hong Kong/2369/2009 H275Y (H1N1).
In assay [4] the test system is Pennsylvania/30/2009 H275Y, I223R (H1N1).
For assay [5], the system named is Hawaii/31/2007 H275Y (H1N1).

≈ marks a conversion by molar mass, not a printed value. Read-outs that look alike come from different tables or passages of the source. Where only a bound is given, the exact number is not on record here.

With `NC(=O)c1ncn([C@@H]2O[C@H](CO)[C@@H](O)[C@H]2O)n1` [Ribavirin, ribavirin], the EC50 in assay [1] (Influenza A virus, H3N2, MDCK) came out at 5.4 µg/mL (≈ 22.1 µM); with WSN/33 H274Y (H1N1), 3.7 µg/mL (≈ 15.2 µM); in assay [2] it was 18 µg/mL (≈ 73.7 µM); in assay [3] it was 28 µg/mL (≈ 115 µM); in assay [4], 5.2 µg/mL (≈ 21.3 µM); in assay [5] it was 7.2 µg/mL (≈ 29.5 µM).

As to Oseltamivir acid [Oseltamivir (OSE)], the EC50 is above 50 µg/mL in assay [1]; 28 µg/mL in the assay on WSN/33 H274Y (H1N1); above 50 µg/mL in assay [2]; above 50 µg/mL in assay [4]; above 21 µg/mL in assay [5]. In addition, the SI is recorded as 0 in assay [1]; above 1.8 in the assay with WSN/33 H274Y (H1N1); 0 in assay [2]; below 6.4 in assay [3]; 0 in assay [4]; below 2.4 in assay [5].
